Legend:
Assay type in all cases: biochemical
[1] = target: T1, c-Raf-1 (Homo sapiens, UniProt P04049); assay: AlphaScreen kinase assay, c-Raf-1; details: read-out: IC50, activity toward kinase c-Raf-1
T1 construct: purchased Upstate Biotechnology

[2] = target: T2, FGFR1 (Homo sapiens, UniProt P11362, C488A/C584S); assay: AlphaScreen kinase assay, FGFR1; details: read-out: IC50, activity toward kinase FGFR
T2 construct: P1351.pET N6 BI-PTP FGFR A458-E765-X C488A, C584S; made in house; host or cells: E. coli (PTP1B co-expressed)

[3] = target: T3, Kit (Homo sapiens, UniProt P10721); assay: AlphaScreen kinase assay, Kit; details: read-out: IC50, activity toward kinase Kit
T3 construct: P1332.N6 BI PTP KIT M552-K948-X COD; His6 (N); made in house; host or cells: E. coli (PTP1B co-expressed)

[4] = target: T4, Fms (Homo sapiens, UniProt P07333); assay: AlphaScreen kinase assay, Fms; details: read-out: IC50, activity toward kinase Fms
T4 construct: purchased Upstate Biotechnology

[5] = target: T5, B-Raf (Homo sapiens, UniProt P15056); assay: AlphaScreen kinase assay, B-Raf; details: read-out: IC50, activity toward kinase B-Raf
T5 construct: purchased Upstate Biotechnology

[6] = target: T6, B-Raf V600E (Homo sapiens, UniProt P15056, V600E); assay: AlphaScreen kinase assay, B-Raf V600E; details: read-out: IC50, activity toward kinase B-Raf V600E
T6 construct: P4254. pFastBacBD-CDC37 BRAF D437-K722-X, V600E; His6 with pFastBac HT leader (TEV site) (N); made in house; host or cells: Sf9 (baculovirus; chaperone CDC37 co-expressed)

[7] = target: T7, Pyk2 (Homo sapiens, UniProt Q14289); assay: AlphaScreen kinase assay, Pyk2; details: read-out: IC50, activity toward kinase Pyk2
T7 construct: purchased Upstate Biotechnology

[8] = target: T8, Ret (Homo sapiens, UniProt P07949); assay: AlphaScreen kinase assay, Ret; details: read-out: IC50, activity toward kinase Ret
T8 construct: P1378.pET-SF BI-PTP RET H661-R1012 HIS; made in house
T8 sequence (P07949 with tags, fused parts or gaps): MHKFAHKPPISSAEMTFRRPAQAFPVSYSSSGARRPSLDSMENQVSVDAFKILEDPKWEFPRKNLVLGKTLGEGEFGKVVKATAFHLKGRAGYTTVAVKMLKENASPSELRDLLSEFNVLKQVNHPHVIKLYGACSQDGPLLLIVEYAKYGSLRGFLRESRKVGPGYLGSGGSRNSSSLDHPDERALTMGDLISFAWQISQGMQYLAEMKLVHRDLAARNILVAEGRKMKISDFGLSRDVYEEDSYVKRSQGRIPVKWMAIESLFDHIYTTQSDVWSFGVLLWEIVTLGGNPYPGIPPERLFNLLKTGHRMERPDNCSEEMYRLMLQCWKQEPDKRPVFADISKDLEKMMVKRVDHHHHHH

[9] = target: T9, Kdr (Homo sapiens, UniProt P35968); assay: Z'-Lyte FRET kinase assay (Invitrogen), Kdr; details: read-out: IC50, activity toward kinase Kdr
T9 construct: purchased Invitrogen (assay run by Invitrogen)

[10] = target: T10, Fak (Homo sapiens, UniProt Q05397); assay: AlphaScreen kinase assay, Fak; details: read-out: IC50, activity toward kinase Fak
T10 construct: P1358.pFastBacHtb FAK S411-Q686-X; His6 with pFastBacHTb leader (TEV site) (N); made in house; host or cells: Sf9 (baculovirus)

[11] = target: T11, Src (Homo sapiens, UniProt P12931); assay: AlphaScreen kinase assay, Src; details: read-out: IC50, activity toward kinase Src
T11 construct: P1144. pET-N6 BI-PTP SRC V86-L536-X; made in house

[12] = target: T12, Jnk1 (Homo sapiens, UniProt P45983); assay: AlphaScreen kinase assay, Jnk1; details: read-out: IC50, activity toward kinase Jnk1
T12 construct: purchased Upstate Biotechnology

[13] = target: T13, Flt1 (Homo sapiens, UniProt P17948); assay: AlphaScreen kinase assay, Flt1; details: read-out: IC50, activity toward kinase Flt1
T13 construct: P1826.pETN6 BI-PTP FLT1 M799-D1165-X WT; His6 (N); made in house; host or cells: E. coli (PTP1B co-expressed)
T13 sequence (P17948 with tags, fused parts or gaps): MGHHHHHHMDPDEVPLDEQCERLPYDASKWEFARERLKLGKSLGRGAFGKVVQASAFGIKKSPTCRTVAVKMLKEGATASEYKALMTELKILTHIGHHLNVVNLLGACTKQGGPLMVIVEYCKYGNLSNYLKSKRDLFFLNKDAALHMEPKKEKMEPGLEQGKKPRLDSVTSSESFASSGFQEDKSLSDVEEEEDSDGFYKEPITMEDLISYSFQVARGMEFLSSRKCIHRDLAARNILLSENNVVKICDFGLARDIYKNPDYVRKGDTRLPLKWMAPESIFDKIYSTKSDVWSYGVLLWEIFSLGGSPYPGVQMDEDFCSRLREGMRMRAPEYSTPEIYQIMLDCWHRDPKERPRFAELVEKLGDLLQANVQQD

[14] = target: T14, Jnk3 (Homo sapiens, UniProt P53779); assay: AlphaScreen kinase assay, Jnk3; details: read-out: IC50, activity toward kinase Jnk3
T14 construct: purchased Upstate Biotechnology

Measured: IC50

T2 sequence (P11362 458-765 C488A/C584S): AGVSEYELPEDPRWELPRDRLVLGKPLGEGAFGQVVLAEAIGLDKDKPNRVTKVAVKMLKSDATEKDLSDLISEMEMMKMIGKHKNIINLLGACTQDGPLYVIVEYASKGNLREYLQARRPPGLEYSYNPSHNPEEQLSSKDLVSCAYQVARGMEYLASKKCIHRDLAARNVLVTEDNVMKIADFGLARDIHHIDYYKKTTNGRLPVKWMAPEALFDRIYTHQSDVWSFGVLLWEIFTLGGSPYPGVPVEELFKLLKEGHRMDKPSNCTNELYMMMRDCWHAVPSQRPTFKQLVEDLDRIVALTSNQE
T1 sequence (P04049 whole entry): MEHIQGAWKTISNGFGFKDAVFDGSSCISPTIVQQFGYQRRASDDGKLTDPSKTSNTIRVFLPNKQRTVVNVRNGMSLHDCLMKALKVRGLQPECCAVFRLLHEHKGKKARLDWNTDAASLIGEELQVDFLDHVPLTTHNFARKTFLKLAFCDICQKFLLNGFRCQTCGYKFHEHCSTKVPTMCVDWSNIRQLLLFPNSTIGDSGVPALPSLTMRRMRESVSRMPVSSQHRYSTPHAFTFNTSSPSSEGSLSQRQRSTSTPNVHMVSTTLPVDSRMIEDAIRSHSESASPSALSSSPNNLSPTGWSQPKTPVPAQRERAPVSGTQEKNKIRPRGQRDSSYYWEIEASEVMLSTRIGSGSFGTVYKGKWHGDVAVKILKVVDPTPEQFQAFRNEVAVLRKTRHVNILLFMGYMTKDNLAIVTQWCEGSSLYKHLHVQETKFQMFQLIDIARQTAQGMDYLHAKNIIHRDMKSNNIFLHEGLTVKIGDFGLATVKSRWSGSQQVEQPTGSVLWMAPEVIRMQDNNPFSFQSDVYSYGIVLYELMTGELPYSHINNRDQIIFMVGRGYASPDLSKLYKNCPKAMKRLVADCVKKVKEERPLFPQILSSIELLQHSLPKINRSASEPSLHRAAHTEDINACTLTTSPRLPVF
T7 sequence (Q14289 whole entry): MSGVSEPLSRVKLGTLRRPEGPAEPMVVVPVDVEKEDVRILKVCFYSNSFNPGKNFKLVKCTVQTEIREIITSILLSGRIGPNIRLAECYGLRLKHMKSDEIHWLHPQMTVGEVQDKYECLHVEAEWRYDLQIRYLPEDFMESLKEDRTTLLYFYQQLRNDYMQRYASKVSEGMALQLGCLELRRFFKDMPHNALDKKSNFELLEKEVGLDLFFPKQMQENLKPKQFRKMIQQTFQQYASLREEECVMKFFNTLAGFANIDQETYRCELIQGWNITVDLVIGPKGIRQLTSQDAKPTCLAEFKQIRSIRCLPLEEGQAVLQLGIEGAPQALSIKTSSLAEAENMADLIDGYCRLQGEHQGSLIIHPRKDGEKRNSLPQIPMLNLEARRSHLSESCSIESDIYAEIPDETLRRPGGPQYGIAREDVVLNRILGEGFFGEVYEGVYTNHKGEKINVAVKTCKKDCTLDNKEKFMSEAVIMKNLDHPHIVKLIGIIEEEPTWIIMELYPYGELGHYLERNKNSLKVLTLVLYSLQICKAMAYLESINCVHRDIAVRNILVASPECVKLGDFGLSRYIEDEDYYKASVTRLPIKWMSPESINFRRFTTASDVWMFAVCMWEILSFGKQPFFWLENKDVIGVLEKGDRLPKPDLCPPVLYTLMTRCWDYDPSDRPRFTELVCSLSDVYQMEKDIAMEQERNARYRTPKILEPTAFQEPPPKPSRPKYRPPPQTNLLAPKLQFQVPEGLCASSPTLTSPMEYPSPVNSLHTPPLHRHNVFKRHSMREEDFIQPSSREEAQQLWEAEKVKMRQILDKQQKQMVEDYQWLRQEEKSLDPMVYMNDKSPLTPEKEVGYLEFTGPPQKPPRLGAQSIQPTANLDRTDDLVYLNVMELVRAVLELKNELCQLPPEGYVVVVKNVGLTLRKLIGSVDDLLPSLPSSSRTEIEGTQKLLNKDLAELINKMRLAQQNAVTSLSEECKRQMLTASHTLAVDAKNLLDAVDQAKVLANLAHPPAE
T3 sequence (P10721 with tags, fused parts or gaps): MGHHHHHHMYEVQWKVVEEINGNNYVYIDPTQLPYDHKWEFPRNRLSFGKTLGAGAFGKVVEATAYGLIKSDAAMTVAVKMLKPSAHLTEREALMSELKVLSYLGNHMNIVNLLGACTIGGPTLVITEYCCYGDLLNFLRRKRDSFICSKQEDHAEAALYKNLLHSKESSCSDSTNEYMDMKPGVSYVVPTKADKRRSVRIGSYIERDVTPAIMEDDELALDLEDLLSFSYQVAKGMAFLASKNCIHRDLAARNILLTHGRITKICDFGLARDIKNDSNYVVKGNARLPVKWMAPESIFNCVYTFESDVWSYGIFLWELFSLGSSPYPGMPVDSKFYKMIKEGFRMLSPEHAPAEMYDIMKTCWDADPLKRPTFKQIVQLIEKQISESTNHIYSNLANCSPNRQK
T4 sequence (P07333 20-972): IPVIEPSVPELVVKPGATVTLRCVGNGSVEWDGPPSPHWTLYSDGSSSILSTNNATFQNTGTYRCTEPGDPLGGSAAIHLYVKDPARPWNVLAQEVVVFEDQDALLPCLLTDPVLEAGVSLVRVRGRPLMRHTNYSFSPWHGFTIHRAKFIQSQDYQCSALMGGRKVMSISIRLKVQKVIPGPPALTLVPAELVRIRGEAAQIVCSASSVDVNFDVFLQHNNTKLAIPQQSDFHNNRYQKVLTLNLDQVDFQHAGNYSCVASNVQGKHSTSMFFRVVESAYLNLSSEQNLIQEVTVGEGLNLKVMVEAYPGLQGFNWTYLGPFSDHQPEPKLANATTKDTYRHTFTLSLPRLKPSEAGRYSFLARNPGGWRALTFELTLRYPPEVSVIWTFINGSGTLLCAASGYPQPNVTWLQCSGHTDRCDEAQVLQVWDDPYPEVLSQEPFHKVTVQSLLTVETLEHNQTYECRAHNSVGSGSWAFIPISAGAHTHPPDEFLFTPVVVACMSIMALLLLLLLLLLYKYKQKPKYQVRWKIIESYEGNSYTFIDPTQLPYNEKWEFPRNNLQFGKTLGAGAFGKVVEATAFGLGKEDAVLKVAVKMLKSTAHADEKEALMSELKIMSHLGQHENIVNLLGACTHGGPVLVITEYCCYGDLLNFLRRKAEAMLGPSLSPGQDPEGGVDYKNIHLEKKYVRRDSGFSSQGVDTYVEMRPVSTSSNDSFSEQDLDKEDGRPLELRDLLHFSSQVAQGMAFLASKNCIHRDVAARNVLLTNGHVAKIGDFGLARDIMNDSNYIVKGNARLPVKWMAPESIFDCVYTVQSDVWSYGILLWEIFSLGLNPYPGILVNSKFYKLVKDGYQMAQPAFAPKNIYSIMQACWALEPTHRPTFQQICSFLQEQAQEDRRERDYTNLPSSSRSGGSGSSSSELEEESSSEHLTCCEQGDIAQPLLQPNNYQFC
T5 sequence (P15056 whole entry): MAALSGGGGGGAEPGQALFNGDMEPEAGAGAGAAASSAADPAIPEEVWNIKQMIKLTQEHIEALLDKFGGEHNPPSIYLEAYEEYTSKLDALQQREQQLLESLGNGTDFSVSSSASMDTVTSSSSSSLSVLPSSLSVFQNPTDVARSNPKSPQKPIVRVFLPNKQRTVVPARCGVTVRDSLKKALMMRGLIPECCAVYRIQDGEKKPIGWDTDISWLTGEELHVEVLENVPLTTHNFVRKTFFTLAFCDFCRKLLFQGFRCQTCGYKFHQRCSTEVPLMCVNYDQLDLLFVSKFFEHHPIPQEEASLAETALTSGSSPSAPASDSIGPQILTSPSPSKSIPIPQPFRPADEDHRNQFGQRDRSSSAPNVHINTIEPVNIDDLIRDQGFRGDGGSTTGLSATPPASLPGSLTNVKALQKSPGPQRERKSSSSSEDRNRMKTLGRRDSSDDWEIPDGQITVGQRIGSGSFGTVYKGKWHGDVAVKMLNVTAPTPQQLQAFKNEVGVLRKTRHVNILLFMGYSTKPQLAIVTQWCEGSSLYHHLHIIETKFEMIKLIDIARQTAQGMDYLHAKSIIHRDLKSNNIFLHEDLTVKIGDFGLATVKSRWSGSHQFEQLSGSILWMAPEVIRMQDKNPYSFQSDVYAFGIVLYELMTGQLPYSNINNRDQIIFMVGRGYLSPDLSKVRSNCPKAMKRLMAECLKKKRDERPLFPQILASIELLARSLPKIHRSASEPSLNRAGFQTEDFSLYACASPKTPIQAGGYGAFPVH
T12 sequence (P45983 whole entry): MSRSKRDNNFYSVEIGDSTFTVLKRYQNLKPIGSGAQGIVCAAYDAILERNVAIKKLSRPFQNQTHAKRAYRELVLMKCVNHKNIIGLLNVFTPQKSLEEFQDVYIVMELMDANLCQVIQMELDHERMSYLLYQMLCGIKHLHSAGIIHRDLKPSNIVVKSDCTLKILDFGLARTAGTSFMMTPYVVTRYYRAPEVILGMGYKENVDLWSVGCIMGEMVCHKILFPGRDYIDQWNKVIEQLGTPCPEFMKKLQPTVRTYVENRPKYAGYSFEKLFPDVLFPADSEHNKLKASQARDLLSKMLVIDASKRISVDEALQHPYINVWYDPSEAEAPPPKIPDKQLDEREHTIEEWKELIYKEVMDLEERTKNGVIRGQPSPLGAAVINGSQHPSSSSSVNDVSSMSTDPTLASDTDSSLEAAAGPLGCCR
T6 sequence (P15056 with tags, fused parts or gaps V600E): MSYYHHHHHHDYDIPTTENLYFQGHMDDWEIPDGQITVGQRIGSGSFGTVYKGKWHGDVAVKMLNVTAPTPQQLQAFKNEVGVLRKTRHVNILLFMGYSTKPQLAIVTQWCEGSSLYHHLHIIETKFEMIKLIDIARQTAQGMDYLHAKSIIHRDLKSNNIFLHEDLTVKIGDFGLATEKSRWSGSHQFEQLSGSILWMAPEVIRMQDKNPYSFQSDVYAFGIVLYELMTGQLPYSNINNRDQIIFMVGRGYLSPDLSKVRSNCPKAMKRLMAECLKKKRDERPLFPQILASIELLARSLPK

CCCS(=O)(=O)Oc1ccc(F)c(C(=O)c2c[nH]c3ncc(Br)cc23)c1F [Compound P-0919, propane-1-sulfonic acid 3-(5-bromo-1H-pyrrolo[2,3-b]pyridine-3-carbonyl)-2,4-difluoro-phenyl ester]
≤ 10 µM: [1] | [2] | [3] | [4] | [5] | [6] | [7]

O=C(c1ccc(O)cc1Cl)c1c[nH]c2ncc(Br)cc12 [Compound P-0137]
≤ 10 µM: [1] | [2] | [6] | [8] | [7] | [9]

CC(C)S(=O)(=O)Nc1ccc(F)c(Cc2c[nH]c3ncc(Br)cc23)c1F [Compound P-0867, Propane-2-sulfonic acid [3-(5-bromo-1H-pyrrolo[2,3-b]pyridin-3-ylmethyl)-2,4-difluoro-phenyl]-amide]
≤ 10 µM: [1] | [10] | [2] | [3] | [4] | [5] | [6] | [7]

CCCC(=O)Nc1ccc(F)c(Cc2c[nH]c3ncc(Br)cc23)c1F [Compound P-1282]
≤ 10 µM: [10] | [2] | [4] | [5] | [6] | [7]

CCCS(=O)(=O)Nc1ccc(F)c(Cc2c[nH]c3ncc(OC)cc23)c1F [Compound P-1316]
≤ 10 µM: [1] | [10] | [2] | [3] | [11] | [4] | [6] | [7]

CCCC(=O)Nc1ccc(F)c(C(=O)c2c[nH]c3ncc(-c4cccc(C(N)=O)c4)cc23)c1F [Compound P-1365]
not listed: [8] | [9] | [11] | [14]
≤ 10 µM: all other assays above

Clc1ccccc1Nc1ccc2cc[nH]c2n1 [Compound P-1375, (2-Chloro-phenyl)-(1H-pyrrolo[2,3-b]pyridin-6-yl)-amine]
≤ 10 µM: [14] | [7]

CCCS(=O)(=O)Nc1ccc(F)c(C(=O)c2c[nH]c3ncc(Nc4ccccc4)cc23)c1F [Compound P-0848, propane-1-sulfonic acid [2,4-difluoro-3-(5-phenylamino-1H-pyrrolo[2,3-b]pyridine-3-carbonyl)-phenyl]-amide]
not listed: [8] | [9] | [10] | [13] | [14]
≤ 10 µM: all other assays above

COc1cccc(Cc2c[nH]c3ncc(-c4ccc(C(N)=O)cc4)cc23)c1 [Compound P-0697]
≤ 10 µM: [2] | [14] | [3] | [5] | [8] | [7]

CCCC(=O)Nc1ccc(F)c(C(=O)c2c[nH]c3ncc(OC)cc23)c1F [Compound P-1370]
≤ 10 µM: [12] | [3] | [4] | [6] | [7] | [13]

CCCS(=O)(=O)Nc1ccc(F)c(Cc2c[nH]c3ncc(-c4ccccc4)cc23)c1F [Compound P-0911, Propane-1-sulfonic acid [2,4-difluoro-3-(5-phenyl-1H-pyrrolo[2,3-b]pyridin-3-ylmethyl)-phenyl]-amide]
≤ 10 µM: [1] | [10] | [2] | [3] | [4] | [5] | [6] | [7]

CN(C)S(=O)(=O)Nc1ccc(F)c(C(=O)c2c[nH]c3ncc(Br)cc23)c1F [Compound P-0898, Dimethylamine-1-sulfonic acid [3-(5-bromo-1H-pyrrolo[2,3-b]pyridine-3-carbonyl)-2,4-difluoro-phenyl]-amide]
≤ 10 µM: [1] | [2] | [3] | [11] | [4] | [5] | [6] | [7]

CN(C)S(=O)(=O)Nc1ccc(F)c(C(=O)c2c[nH]c3ncc(-c4ccccc4)cc23)c1F [Compound P-0857]
≤ 10 µM: [1] | [2] | [3] | [11] | [4] | [5] | [6] | [7]

CCCS(=O)(=O)Nc1ccc(F)c(C(=O)c2c[nH]c3ncc(-c4cccc(OC)c4)cc23)c1F [Compound P-0874, Propane-1-sulfonic acid {2,4-difluoro-3-[5-(3-methoxy-phenyl)-1H-pyrrolo[2,3-b]pyridine-3-carbonyl]-phenyl}-amide]
≤ 10 µM: [1] | [2] | [3] | [11] | [4] | [5] | [6] | [7]
